Laboratory results as given in publication PMC4871321 (Angewandte Chemie (Weinheim an Der Bergstrasse, Germany), 2015).

Molecular target: T1, BRD4(1) (Homo sapiens, UniProt O60885)
T1 construct: first bromodomain
Experiment: biochemical
Parameters: differential scanning fluorimetry, SYPRO Orange, shift of melting temperature of 2 uM bromodomain
Conditions: read-out: BRD4(1) ΔTm (°C)

ΔTm at 10 µM | Structure (SMILES)
0.33 °C | Cc1cc(=O)n(C)c2cc(N3C(=O)CC[C@H](NC(=O)OC(C)(C)C)[C@H]3C)ccc12 (relative stereo) [compound 21, 21]
0.19 °C | Cc1cc(=O)n(C)c2cc(N3C[C@@H](NC(=O)OC(C)(C)C)[C@H](C)CC3=O)ccc12 (relative stereo) [compound 22, 22]
